Results taken from paper PMC6193737, “Ligand binding properties of two Brugia malayi fatty acid and retinol (FAR) binding proteins and their vaccine efficacies against challenge infection in gerbils” (PLoS Neglected Tropical Diseases, 2018).

Assays:
Format in all cases: binding
rBm-FAR-1 [1] = molecular target: T1, rBm-FAR-1 (Brugia malayi, UniProt A0A0K0J905); test: fluorescence emission enhancement and blue shift; details: PBS pH 7.2; DAUDA ~1 uM; excitation 345 nm; fluorophore-tagged fatty acid
T1 construct: gene bma-far-1; signal peptide removed; C-terminal 6His tag; secreted from Pichia (PichiaPink strain 4, pPinkalpha-HC, codon optimised); IMAC; ~19 kDa

rOv-FAR-1 [2] = molecular target: T2, rOv-FAR-1 (Onchocerca volvulus, UniProt Q25619); test: fluorescence emission enhancement and blue shift; details: PBS pH 7.2; DAUDA ~1 uM; excitation 345 nm; fluorophore-tagged fatty acid
T2 construct: recombinant from E. coli, produced by procedures similar to rBm-FAR-2 (His tag, IMAC, signal peptide removed)

rOv-FAR-1 [3] = molecular target: T2, rOv-FAR-1; test: fluorescence emission enhancement; details: PBS pH 7.2
rBm-FAR-1 [4] = molecular target: T1, rBm-FAR-1; test: fluorescence emission enhancement; details: PBS pH 7.2
rOv-FAR-2 = molecular target: T3, rOv-FAR-2 (Onchocerca volvulus, UniProt C7DRP3); test: fluorescence emission enhancement; details: PBS pH 7.2
T3 construct: recombinant from E. coli, produced by procedures similar to rBm-FAR-2 (His tag, IMAC, signal peptide removed)

[5] = retinol ~4 uM, excitation 350 nm

T2 sequence (Q25619 17-178): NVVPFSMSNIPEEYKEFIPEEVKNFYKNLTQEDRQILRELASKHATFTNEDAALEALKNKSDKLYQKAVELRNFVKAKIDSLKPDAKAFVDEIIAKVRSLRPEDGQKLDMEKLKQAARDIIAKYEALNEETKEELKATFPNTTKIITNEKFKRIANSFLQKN
T1 sequence (A0A0K0J905 entry or part of it): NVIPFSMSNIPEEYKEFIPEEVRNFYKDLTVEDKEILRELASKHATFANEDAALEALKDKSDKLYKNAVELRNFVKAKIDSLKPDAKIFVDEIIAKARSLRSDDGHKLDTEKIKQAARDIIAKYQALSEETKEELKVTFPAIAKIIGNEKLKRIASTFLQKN
T3 sequence (C7DRP3 entry or part of it): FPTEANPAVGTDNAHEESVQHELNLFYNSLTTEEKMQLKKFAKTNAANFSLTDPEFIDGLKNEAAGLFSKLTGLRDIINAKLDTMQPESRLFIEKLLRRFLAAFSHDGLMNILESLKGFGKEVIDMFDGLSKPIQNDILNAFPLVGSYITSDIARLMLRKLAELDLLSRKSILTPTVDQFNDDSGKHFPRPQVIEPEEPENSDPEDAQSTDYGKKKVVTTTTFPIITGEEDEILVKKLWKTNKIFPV

CN(C)c1cccc2c(S(=O)(=O)NCCCCCCCCCCC(=O)O)cccc12 [DAUDA, 11-((5-dimethylaminonaphthalene-1-sulfonyl)amino)undecanoic]
fluorescence emission enhancement and blue shift (rBm-FAR-1 [1]): rBm-FAR-1 produced a large increase in DAUDA emission and a substantial blue-shift
fluorescence emission enhancement and blue shift (rOv-FAR-1 [2]): FAR-1s bind DAUDA, yielding similarly substantial increases and blue shift

CC1=C(/C=C/C(C)=C/C=C/C(C)=C/CO)C(C)(C)CCC1 [all-trans retinol]
fluorescence emission enhancement (rOv-FAR-1 [3]; [5]): the proteins from both parasites bind retinol
fluorescence emission enhancement (rBm-FAR-1 [4]; [5]): Addition of retinol to either rBm-FAR-1 or rBm-FAR-2 resulted in substantial increases in fluorescence emission
fluorescence emission enhancement (rOv-FAR-2; [5]): the proteins from both parasites bind retinol

CC\C=C/C=C/C=C/C=C\CCCCCCCC(=O)O [cis-parinaric acid]
fluorescence emission enhancement (rOv-FAR-1 [3]; cPnA ~4 uM, excitation 319 nm): both FAR-1s and FAR-2s bind a natural, intrinsically fluorescent, fatty acid acid (cPnA)
fluorescence emission enhancement (rBm-FAR-1 [4]; cPnA ~4 uM, excitation 319 nm): Both rBm-FAR-1 and rBm-FAR-2 bound cPnA
fluorescence emission enhancement (rOv-FAR-2; cPnA ~4 uM, excitation 319 nm): both FAR-1s and FAR-2s bind a natural, intrinsically fluorescent, fatty acid acid (cPnA)
